In BigSolDB 2.1:

CC(CN1c2ccccc2S(=O)(=O)c2ccccc21)N(C)C.Cl (centres undefined)
Details	solubility (mole fraction)
in DMF, 278.2 K	0.00381
in DMF, 283.2 K	0.00418
in DMF, 288.27 K	0.00448
in DMF, 293.18 K	0.00474
in DMF, 298.17 K	0.00514
in DMF, 303.19 K	0.00554
in DMF, 308.23 K	0.00601
in DMF, 313.17 K	0.00658
in DMF, 318.23 K	0.00716
in DMF, 323.18 K	0.00783
in NMP, 278.16 K	0.00641
in NMP, 283.2 K	0.00692
in NMP, 288.24 K	0.00747
in NMP, 293.16 K	0.00791
in NMP, 298.17 K	0.00843
in NMP, 308.17 K	0.00975
in NMP, 313.21 K	0.0104
in NMP, 318.23 K	0.0111
in NMP, 323.27 K	0.0119
in acetic acid, 293.16 K	0.00208
in acetic acid, 298.18 K	0.00277
in acetic acid, 303.18 K	0.00347
in acetic acid, 308.2 K	0.00433
in acetic acid, 313.17 K	0.00548
in acetic acid, 318.22 K	0.00689
in acetic acid, 328.23 K	0.01
in acetic acid, 333.19 K	0.0123
in acetic acid, 338.2 K	0.0149
in acetone, 278.2 K	0.000103
in acetone, 283.16 K	0.000124
in acetone, 288.16 K	0.00015
in acetone, 293.17 K	0.000177
in acetone, 298.18 K	0.000199
in acetone, 303.17 K	0.000216
in acetone, 308.21 K	0.000237
in acetone, 313.2 K	0.000258
in acetone, 318.18 K	0.000278
in acetone, 323.17 K	0.000298
in ethanol, 278.16 K	0.000269
in ethanol, 283.21 K	0.000296
in ethanol, 288.22 K	0.000322
in ethanol, 293.18 K	0.000365
in ethanol, 298.21 K	0.000419
in ethanol, 303.22 K	0.0005
in ethanol, 308.18 K	0.000589
in ethanol, 313.17 K	0.000686
in ethanol, 318.2 K	0.000829
in methanol, 278.17 K	0.000759
in methanol, 283.22 K	0.000925
in methanol, 288.19 K	0.00112
in methanol, 293.26 K	0.00137
in methanol, 298.17 K	0.00156
in methanol, 303.19 K	0.00185
in methanol, 308.21 K	0.00225
in methanol, 313.21 K	0.00284
in methanol, 318.18 K	0.0034
in water, 278.28 K	0.00136
in water, 283.27 K	0.00163
in water, 288.27 K	0.002
in water, 293.24 K	0.00246
in water, 298.18 K	0.00302
in water, 303.18 K	0.00379
in water, 308.16 K	0.00484
in water, 313.22 K	0.00625
